Patent US20200197365A1, “TREATMENT WITH NMDA RECEPTOR MODULATORS” (Naurex Inc., priority 2017, published 2020)
Residues, ends and D or L forms follow the SMILES beside them.

System: Male rats
Test: Sleep-wake cycle analysis by telemetric EEG recording (23 hours) in rats
Assay type: in vivo, rat
Settings: for latency to SWS onset (change): FIG. 1A; for latency to REM sleep onset (change): FIG. 1B
Protocol: Male rats were anesthetized and surgically implanted with 2 surface electrodes in the frontoparietal cortex and 2 depth electrodes in the CA1 region of the hippocampus (AP+5.0 mm, L±2.5 mm, V+7.0 mm). After ≥10 days recovery, telemetric transmitters were connected to electrodes for electroencephalographic (EEG) recordings. On the day of experiment, rats were injected at the beginning of the light phase with rapastinel (3, 10, or 30 mg/kg, IV), ketamine (30 mg/kg, IP), or the positive control zolpidem (12 mg/kg, PO) using a treatment schedule based on a cross-over design (n=9-10/dose/group) in which rats received zolpidem or rapastinel at session 1 and then rapastinel and/or ketamine at sessions 2-4. Physiological saline was used as the vehicle control
Sleep-wake cycles were measured continuously following rapastinel treatment for the next 23 hours and were analyzed based on a spectral power analysis. Latencies to first occurrence of SWS and REM sleep, as well as percent time spent in SWS, REM sleep, and wakefulness, were calculated for the total recording sessions (23 hours), the half cycles (0-12 and 12-23 hours), and 5 time segments (0-4, 4-8, 8-12, 12-18, and 18-23 hours). Depth of SWS (defined as the ratio between alpha and delta spectral power) was also calculated. Differences between vehicle and test drugs were calculated for all variables, for each animal, and for the means of the animals per treatment group, and analyzed using a paired t-test

[1] = ketamine 30 mg/kg IP, 12-23 hours post-dose, P<0.05
[2] = rapastinel, entire recording session, FIG. 2

SMILES: CNC1(c2ccccc2Cl)CCCCC1=O (centres unmarked) [Ketamine, ketamine]
- alpha/delta ratio (depth of SWS) (ketamine 30 mg/kg IP, 0-4 hours post-dose): concomitant decrease
- duration of SWS (ketamine 30 mg/kg IP, 0-4 hours post-dose, FIG. 2A): decreased
- duration of REM sleep (ketamine 30 mg/kg IP, 0-4 hours post-dose, P<0.001): decreased
- waking (duration) (ketamine 30 mg/kg IP, 12-23 hours post-dose, P<0.01): small but significant decrease
- REM sleep (duration) [1]: compensatory increase
- SWS duration [1]: significantly increased
- percentage of active waking [1]: significantly decreased
- latency to SWS onset (change) (ketamine 30 mg/kg IP, P<0.001): +393%
- latency to REM sleep onset (change) (ketamine 30 mg/kg IP, P<0.001): +104%
- duration of waking (ketamine 30 mg/kg IP, first 4 hours post-dose, P<0.001): significantly increased

SMILES: C[C@@H](O)[C@H](N)C(=O)N1CCC[C@H]1C(=O)N1CCC[C@H]1C(=O)N[C@H](C(N)=O)[C@@H](C)O [Rapastinel, rapastinel] (H-TPPT-NH2)
- latency to SWS onset (change) (rapastinel 3 mg/kg IV, P<0.05): −33%
- percentage of active waking (rapastinel 30 mg/kg IV, 8-12 hours post-dose, P<0.01): small but significant decrease
- percentage of active waking (rapastinel 30 mg/kg IV, 18-23 hours post-dose, P<0.05): small but significant decrease
- latency to REM sleep onset (rapastinel 3, 10, and 30 mg/kg IV): no significant effect
- duration of REM sleep (rapastinel 3, 10, and 30 mg/kg IV, FIG. 3): did not have a significant effect
- duration of waking (rapastinel 3, 10, or 30 mg/kg IV, FIG. 4A): no effect
- latency to SWS onset (rapastinel 10 and 30 mg/kg IV): no significant effect
- percentage of active waking (rapastinel, all doses and time segments other than the 30 mg/kg exceptions, FIG. 4B): no effect
- depth of SWS [2]: no significant effect
- duration of SWS [2]: no significant effect

SMILES: Cc1ccc(-c2nc3ccc(C)cn3c2CC(=O)N(C)C)cc1 [Zolpidem, zolpidem]
- percentage of active waking (zolpidem 12 mg/kg PO, 0-12 hours post-dose, P<0.05): significantly decreased
- duration of REM sleep (zolpidem 12 mg/kg PO, 4-8 hours post-dose, P<0.05): significantly decreased
- depth of SWS (zolpidem 12 mg/kg PO, >8 hours post-dose, P<0.05, FIG. 2B): significantly increased
- duration of waking (zolpidem 12 mg/kg PO, FIG. 4A): no effect
- latency to REM sleep onset (change) (zolpidem 12 mg/kg PO, P<0.01): +67%
- latency to SWS onset (change) (zolpidem 12 mg/kg PO, P<0.05): −50%
